According to patent US7368475B2, “Furanose-type bicyclic carbohydrates with biological activity” (Kemin Pharma BVBA, priority 2003, dated 2008):
Converted amounts (≈) assume the structure as drawn.

Experiments:
E. coli ATCC 25922 = experiment: microbe, parasite or virus in culture; assay type: cell-based; settings: Escherichia coli, ATCC25922, negative control = 100, read-out: % of growth at 25 PPM compared to negative control, E. coli ATCC 25922
HSV-2 (G) = experiment: HSV-2 (G)-induced cytopathicity in human embryo fibroblast E6SM; assay type: cell-based, Herpes Simplex Virus; settings: Human alphaherpesvirus 2
[1] = test system: murine leukemia cells (L1210/0); experiment: Inhibition of proliferation of murine leukemia cells L1210/0; assay type: cell-based; settings: for IC50: Mus musculus, L1210/0, read-out: IC50 L1210/0
Procedure: (§1) The compounds were tested for antitumor activity via the inhibitory effects on the proliferation of murine leukemia cells (L1210/0), murine mammary carcinoma cells (FM3A) and human T-lymphocyte cells (Molt4/C8), (CEM/0). […] Compound A1 and Compound A4 show no effect at concentrations up to 200 ppm.

A. fumigatus IHEM 2895 = experiment: microbe, parasite or virus in culture; assay type: cell-based; settings: Aspergillus fumigatus, IHEM2895, negative control = 100, read-out: % of growth at a dose of 25 PPM compared to the negative control, A. fumigatus IHEM 2895
[2] = test system: S. aureus ATCC 29213 LMG 10147; experiment: microbe, parasite or virus in culture; assay type: cell-based; settings: Staphylococcus aureus, negative control = 100, read-out: % of growth at 25 PPM compared to negative control, S. aureus ATCC 29213 LMG 10147
CMV David Strain = experiment: CMV plaque formation in HEL cells, David strain; assay type: cell-based, human Cytomegalovirus; settings: Human betaherpesvirus 5, virus plaque formation, virus input 100 PFU
[3] = test system: E. faecalis ATCC 29212 LMG 8222; experiment: microbe, parasite or virus in culture; assay type: cell-based; settings: Enterococcus faecalis, negative control = 100, read-out: % of growth at 25 PPM compared to negative control, E. faecalis ATCC 29212 LMG 8222
[4] = test system: T. mentagrophytes ATCC 9233 IHEM 10342; experiment: microbe, parasite or virus in culture; assay type: cell-based; settings: Trichophyton mentagrophytes, ATCC9233, negative control = 100, read-out: % of growth at a dose of 25 PPM compared to the negative control, T. mentagrophytes ATCC 9233 IHEM 10342
[5] = test system: human T-lymphocyte cells (Molt4/C8); experiment: Inhibition of proliferation of human T-lymphocyte cells Molt4/C8; assay type: cell-based; settings: cytostatic activity, 50% inhibitory concentration
Procedure: as §1

HIV-2 (ROD) = experiment: HIV-2 (ROD)-induced cytopathicity in human CEM cell cultures; assay type: cell-based; settings: Human immunodeficiency virus 2, CCRF-CEM
[6] = test system: murine mammary carcinoma cells (FM3A); experiment: Inhibition of proliferation of murine mammary carcinoma cells FM3A; assay type: cell-based; settings: Mus musculus, cytostatic activity, 50% inhibitory concentration, read-out: IC50 FM3A/0
Procedure: as §1

HSV-1 (KOS) = experiment: HSV-1 (KOS)-induced cytopathicity in human embryo fibroblast E6SM; assay type: cell-based, Herpes Simplex Virus; settings: Human alphaherpesvirus 1
VZV OKA = experiment: microbe, parasite or virus in culture; assay type: cell-based, Varicella Zoster Virus; settings: Human alphaherpesvirus 3, HEL, read-out: EC50 VZV (HEL) OKA
CMV AD-169 Strain = experiment: CMV plaque formation in HEL cells, AD-169 strain; assay type: cell-based, human Cytomegalovirus; settings: for IC50: Human betaherpesvirus 5, AD169, virus plaque formation, HEL cells, virus input 100 PFU; for activity against CMV (in words): strain not specified
VZV 07/1 = experiment: microbe, parasite or virus in culture; assay type: cell-based, Varicella Zoster Virus; settings: Human alphaherpesvirus 3, HEL, read-out: EC50 VZV (HEL) 07/1
[7] = test system: Candida albicans ATCC 24433 IHEM 10284; experiment: microbe, parasite or virus in culture; assay type: cell-based; settings: ATCC24433, negative control = 100, read-out: % of growth at a dose of 25 PPM compared to the negative control, Candida albicans ATCC 24433 IHEM 10284
[8] = test system: C. neoformans ATCC 90112 IHEM 9558; experiment: microbe, parasite or virus in culture; assay type: cell-based; settings: Cryptococcus neoformans, ATCC90112, negative control = 100, read-out: % of growth at a dose of 25 PPM compared to the negative control, C. neoformans ATCC 90112 IHEM 9558
[9] = test system: P. aeruginosa ATCC 27853 LMG 16217; experiment: microbe, parasite or virus in culture; assay type: cell-based; settings: Pseudomonas aeruginosa, negative control = 100, read-out: % of growth at 25 PPM compared to negative control, P. aeruginosa ATCC 27853 LMG 16217
[10] = test system: human T-lymphocyte cells (CEM/0); experiment: Inhibition of proliferation of human T-lymphocyte cells CEM/0; assay type: cell-based; settings: CCRF-CEM, cytostatic activity, 50% inhibitory concentration
Procedure: as §1

VV = experiment: VV-induced cytopathicity in human embryo fibroblast E6SM; assay type: cell-based, Vaccinia Virus; settings: for EC50: Orthopoxvirus vaccinia, E6SM, read-out: EC50 VV (E6SM)
HIV-1 (IIIB) = experiment: microbe, parasite or virus in culture; assay type: cell-based; settings: Human immunodeficiency virus 1, IIIB, CCRF-CEM; HIV-induced cytopathicity in human CEM cell cultures
[11] = test system: C. perfringens ATCC 13124; assay type: cell-based, Clostridium perfringens; settings: negative control = 100

## CO[C@@H]1[C@@H]2O[Si](C(C)C)(C(C)C)O[Si](C(C)C)(C(C)C)OC[C@H]2O[C@H]1c1ccccc1 [Compound A3, β-D-1-Deoxy-1-phenyl-2-O-methyl-3,5-O-(1,1,3,3-tetraisopropyldisiloxanylidene)-ribofuranose]
E. coli ATCC 25922
  activity at 25 ppm: 91.3%
HSV-2 (G)
  EC50: > 16 µg/mL
[1]
  IC50: 18 ± 0.5 µg/mL (≈ 38.6 µM)
[1]; text summary over L1210/0, FM3A, Molt4/C8, CEM/0
  cytostatic activity (in words): small cytostatic activity
A. fumigatus IHEM 2895
  activity at 25 ppm: 37.5%
[2]
  activity at 25 ppm: 92.5%
CMV David Strain
  IC50: 1.3 µg/mL (≈ 2.79 µM)
[3]
  activity at 25 ppm: 94.2%
[4]
  activity at 25 ppm: 64.4%
[5]
  IC50: 19 ± 2 µg/mL (≈ 40.7 µM)
HIV-2 (ROD)
  EC50: > 4 µg/mL
[6]
  IC50: 15 µg/mL (≈ 32.1 µM)
HSV-1 (KOS)
  EC50: > 16 µg/mL
VZV OKA
  EC50: > 2 µg/mL
CMV AD-169 Strain
  IC50: 1.3 µg/mL (≈ 2.79 µM)
  activity against CMV (in words): significant activity
VZV 07/1
  EC50: > 2 µg/mL
[7]
  activity at 25 ppm: 62.2%
[8]
  activity at 25 ppm: 81.1%
[9]
  activity at 25 ppm: 87.6%
[10]
  IC50: 20 ± 4 µg/mL (≈ 42.8 µM)
VV
  EC50: > 16 µg/mL
HIV-1 (IIIB)
  EC50: > 4 µg/mL

## CO[C@@H]1[C@H](O)[C@@H](CO)O[C@H]1c1ccccc1 [Compound A4, β-D-1-Deoxy-1-phenyl-2-O-methyl-ribofuranose]
E. coli ATCC 25922
  activity at 25 ppm: 92.8%
HSV-2 (G)
  EC50: > 400 µg/mL
[1]
  IC50: > 200 µg/mL
[1]; at concentrations up to 200 ppm, L1210/0, FM3A, Molt4/C8, CEM/0
  effect on cell proliferation (in words): no effect
A. fumigatus IHEM 2895
  activity at 25 ppm: 70.9%
[2]
  activity at 25 ppm: 96.9%
CMV David Strain
  IC50: > 50 µg/mL
[3]
  activity at 25 ppm: 95.4%
[4]
  activity at 25 ppm: 79.7%
[5]
  IC50: > 200 µg/mL
HIV-2 (ROD)
  EC50: > 100 µg/mL
[6]
  IC50: > 200 µg/mL
HSV-1 (KOS)
  EC50: > 400 µg/mL
VZV OKA
  EC50: > 50 µg/mL
CMV AD-169 Strain
  IC50: > 50 µg/mL
VZV 07/1
  EC50: > 50 µg/mL
[7]
  activity at 25 ppm: 110%
[8]
  activity at 25 ppm: 99.9%
[9]
  activity at 25 ppm: 93.5%
[10]
  IC50: > 200 µg/mL
VV
  EC50: > 400 µg/mL
HIV-1 (IIIB)
  EC50: > 100 µg/mL

## CO[C@@H]1[C@@H]2O[C@H](c3ccccc3)OC[C@H]2O[C@H]1c1ccccc1 [Compound A5, β-D-1-Deoxy-1-phenyl-2-O-methyl-3,5-O-benzylidene-ribose]
E. coli ATCC 25922
  activity at 25 ppm: 124%
A. fumigatus IHEM 2895
  activity at 25 ppm: 57%
[2]
  activity at 25 ppm: 92%
[3]
  activity at 25 ppm: 92%
[4]
  activity at 25 ppm: 66%
CMV AD-169 Strain
  activity against CMV (in words): slight
[7]
  activity at 25 ppm: 120%
[8]
  activity at 25 ppm: 76%
[9]
  activity at 25 ppm: 91%
[11]
  % of growth at 25 PPM compared to negative control, C. perfringens ATCC 13124: 95.0%

## CC(C)[Si]1(C(C)C)OC[C@H]2OC(c3ccccc3)C[C@@H]2O[Si](C(C)C)(C(C)C)O1 (stereo partly drawn) [Compound A6 A + B, α-β-D-1,2-dideoxy-1-phenyl-3,5-O-(1,1,3,3-tetraisopropyldisiloxanylidene)-ribofuranose]
E. coli ATCC 25922
  activity at 25 ppm: 94%
A. fumigatus IHEM 2895
  activity at 25 ppm: 54%
[2]
  activity at 25 ppm: 95%
[3]
  activity at 25 ppm: 95%
[4]
  activity at 25 ppm: 56%
[7]
  activity at 25 ppm: 85%
[8]
  activity at 25 ppm: 102%
[9]
  activity at 25 ppm: 92%
[11]
  % of growth at 25 PPM compared to negative control, C. perfringens ATCC 13124: 98.0%

## CC(=O)OC[C@H]1O[C@@H](c2ccccc2)C[C@@H]1OC(C)=O [Compound A7, β-D-1,2-dideoxy-1-phenyl-ribofuranose-3,5-diacetate]
E. coli ATCC 25922
  activity at 25 ppm: 94.8%
HSV-2 (G)
  EC50: > 400 µg/mL
A. fumigatus IHEM 2895
  activity at 25 ppm: 95%
[2]
  activity at 25 ppm: 91.2%
CMV David Strain
  IC50: > 100 µg/mL
[3]
  activity at 25 ppm: 98.1%
[4]
  activity at 25 ppm: 83%
HSV-1 (KOS)
  EC50: > 400 µg/mL
CMV AD-169 Strain
  IC50: > 100 µg/mL
[7]
  activity at 25 ppm: 83.4%
[8]
  activity at 25 ppm: 67.8%
[9]
  activity at 25 ppm: 92.7%
VV
  EC50: > 400 µg/mL
[11]
  % of growth at 25 PPM compared to negative control, C. perfringens ATCC 13124: 95.4%

## OC[C@H]1O[C@@H](c2ccccc2)C[C@@H]1O [Compound A8, β-D-1,2-dideoxy-1-phenyl-ribofuranose]
E. coli ATCC 25922
  activity at 25 ppm: 99.2%
HSV-2 (G)
  EC50: > 400 µg/mL
A. fumigatus IHEM 2895
  activity at 25 ppm: 107%
[2]
  activity at 25 ppm: 92.3%
other
  melting point: 89 to 91 °C
CMV David Strain
  IC50: > 100 µg/mL
[3]
  activity at 25 ppm: 95.5%
[4]
  activity at 25 ppm: 95%
HSV-1 (KOS)
  EC50: > 400 µg/mL
CMV AD-169 Strain
  IC50: > 100 µg/mL
[7]
  activity at 25 ppm: 92.4%
[8]
  activity at 25 ppm: 84.8%
[9]
  activity at 25 ppm: 92.7%
VV
  EC50: > 400 µg/mL
[11]
  % of growth at 25 PPM compared to negative control, C. perfringens ATCC 13124: 96.2%

## CC1(C)O[C@H]2O[C@H](COCc3ccccc3)[C@H](OCc3ccccc3)[C@H]2O1 [Compound A9, α-D-1,2-O-isopropylidene-3,5-O-dibenzyl-xylofuranose]
E. coli ATCC 25922
  activity at 25 ppm: 95.6%
HSV-2 (G)
  EC50: > 80 µg/mL
A. fumigatus IHEM 2895
  activity at 25 ppm: 74%
[2]
  activity at 25 ppm: 93.7%
CMV David Strain
  IC50: 7.6 µg/mL (≈ 20.5 µM)
[3]
  activity at 25 ppm: 102%
[4]
  activity at 25 ppm: 92%
HSV-1 (KOS)
  EC50: > 80 µg/mL
VZV OKA
  EC50: > 80 µg/mL
CMV AD-169 Strain
  IC50: 10.5 µg/mL (≈ 28.3 µM)
  activity against CMV (in words): significant activity
VZV 07/1
  EC50: > 80 µg/mL
[7]
  activity at 25 ppm: 85.9%
[8]
  activity at 25 ppm: 55.1%
[9]
  activity at 25 ppm: 93%
VV
  EC50: 48 µg/mL (≈ 130 µM)
VV; Table 2
  activity against VV (in words): slight activity
[11]
  % of growth at 25 PPM compared to negative control, C. perfringens ATCC 13124: 95.1%
